# Experimental data reported in patent publication US20240247048A1 (EMORY UNIVERSITY, priority 2021, published 2024).
# Experiments:
# [1] = system: phospho-CREB downstream of VPAC1/2 receptor; assay: phosphorylation of CREB in activated human T cells; type: cell-based; details: 6 h, 3 uM, compared with control scrambled peptide; FIG. 17e
# Method: (FIG. 17A) Representative western blot and (FIG. 17B) quantified expression levels of VPAC1 and VPAC2; and (FIG. 17C) PD-1 and CTLA-4 in lysates of healthy human T cells expanded with plate bound human anti-CD3 antibodies for 0, 3, 6, 12, 24, 48 and 72 hours. Lower molecular weight band of 25kD shown for VPAC2-specific expression as confirmed from our VPAC2 KO model. Percentage of (FIG. 17D) CD69 expression at 24 h post activation (FIG. 17E) phosphorylation of CREB (phospho-CREB) downstream of VPAC1/2 receptor at 6 h and in CD4+ and CD8+ T cells normalized to levels in control with no peptide. PDAC patient peripheral blood T cells were expanded for 9 days with plate bound human anti-CD3 antibodies+/−ANT008 and the (FIG. 17F) percentage of Tregs was quantified using the (FIG. 17G) gating strategy shown. Percentage of PD1+, Tim-3+, Lag3+, PD1+Tim-3+, PD1+Lag3+ and PD1+Tim-3+Lag-3+(triple positive) in (FIG. 17H) CD4+ and (FIG. 17I) CD8+ subsets is shown. Statistical differences in FIGS. 17D and 17E were calculated via repeated measures ANOVA followed by Dunnett's post-test where each sample in the treatment group was compared to the matched sample in the control group (scrambled treated). Statistical differences in FIGS. 17F, 17H, and 17I were calculated via paired student T-test. Error bars show mean±SEM. […], **p<0.01 and ***p<0.001. […]
# [2] = system: intraocular melanoma; assay: liver metastases in intraocular melanoma mouse model; type: in vivo
sequence,measurement,setting,value
KPRRPYTSDYTRLRKQMAVKKYLNLILN [ANT308],activation-induced phosphorylation of CREB,[1],more potently inhibited
same,growth of liver metastases,"[2]; 3 weeks after tumor inoculation, N=6, FIG. 36",suppressed growth
same,size of intraocular melanoma,[2]; FIG. 38,not affected
same,angiogenesis of liver metastases,"[2]; N=10, FIG. 37",inhibited angiogenesis
same,hepatic metastases in 3 weeks,"[2]; n=6, FIG. 34",decreased
